Data published in US9808527B2, “Methods and compositions for treating HIV infections” (priority 2006, dated 2017).
Entries after “also recorded” stand apart in the source; their conditions may differ. Where two headings read alike, the source gives them in different places.

Key:
HIV-1LAI = experiment: MTT assay, MT-2 cells exposed to HIV-1LAI (acute HIV-1 infection assay); type: cell-based; details: Human immunodeficiency virus 1, MT2, 168 h
Experimental: Drug susceptibility assay. The susceptibility of HIV-1LAI, HIV-2EHO, HIV-2ROD, to various drugs and the cytotoxicity of those drugs was determined by using the MTT assay. Briefly, MT-2 cells (2×10^4/mL) were exposed to 100 TCID50s (50% tissue culture infectious doses) of HIV-1LAI, HIV-2EHO, or HIV-2ROD in the presence or absence of various concentrations of drugs in 96-well microculture plates and were incubated at 37° C. for 7 days. After 100 μL of the medium was removed from each well, 3-(4,5-dimethylthiazol-2-yl)-2,5-diphenyltetrazolium bromide (MTT) solution (10 μL, 7.5 mg/mL in phosphate-buffered saline) was added to each well in the plate, followed by incubation at 37° C. for 4 hours. […] All assays were performed in duplicate or triplicate. To determine the sensitivity of HIV-1Ba-L, HIV-1ERS104 pre, and clinical multi-drug-resistant HIV-1 isolates and different subtypes of HIV-1 isolates to drugs, phytohemagglutinin-activated peripheral blood mononuclear cells (PHA-PBMs; 10^6/mL) were exposed to 50 TCID50 (50% tissue infectious dose) of each HIV-1 isolate and cultured in the presence or absence of various concentrations of drugs in 10-fold serial dilutions in 96-well microtiter culture plates. To determine the drug susceptibility of certain laboratory HIV-1 strains (HIV-1NL4-3), MT-4 cells were used as target cells. MT-4 cells (10^5/mL) were exposed to 100 TCID50 of wild type HIV-1NL4-3 and PI-resistant HIV-1NL4-3 in the presence or absence of various concentrations of drugs and were incubated at 37° C. On day 7 of culture, the supernatant was harvested and the amount of p24 Gag protein was determined by using a fully automated chemiluminescent enzyme immunoassay system (Lumipulse F; Fujirebio Inc., Tokyo, Japan) (22). […] All assays were performed in duplicate or triplicate.

[1] = molecular target: T1, CFP- and YFP-tagged HIV-1 protease subunits (Human immunodeficiency virus type 1 group M subtype B, UniProt P12497); type: cell-based; details: Cos-7 cells; for inhibition of protease dimerization: 1 μM
T1 construct: expressed in transfected cells; host or cells: Cos-7
Experimental: After 72 hr, cultured cells were examined in the FRET-HIV-1 assay system using confocal microscopy Fluoview FV500 confocal laser scanning microscope, and CFP^A/B were determined and plotted. […] The FRET efficiency was determined following acceptor photobleaching as previously described (Bastiaens et al., EMBO 1996; Siegel et al., Science's stke 2000; Firulli et al., Nature genetics, 2005; Szczesna et al., JBC 2003). Dequenching of the donor CFP by selective photobleaching of the acceptor YFP was performed by first obtaining YFP and CFP images at the same focal plane, followed by illuminating for 3 min the same image at wavelength of 488 nm with a laser power set at the maximum intensity to bleach YFP and re-capturing the same CFP and YFP images. The changes in the CFP and YFP fluorescence intensity in the images of selected regions were examined and quantified using Olympus FV500 Image software system. Background values were obtained from the regions where no cells were present and were subtracted from the values for the cells examined in all calculations. For each chimeric protein, the data were obtained from at least three independent experiments. FRET efficiency was determined using the formula: ET=(1−(IDA/ID))×100, where IDA and ID represent the steady-state donor fluorescence in the presence and absence of the acceptor, respectively. Digitized image data obtained from the experiment were prepared for presentation using Photoshop 6.0 (Adobe systems, Mountain View, Calif.). Ratios of intensities of ECFP fluorescence after photobleaching to ECFP fluorescence prior to photobleaching were determined. The ratios of more than 1 indicate that dimerization of CFP- and YFP-tagged protease subunits occurred and those of less than 1 indicate that dimerization was blocked by the test agent.
Generation of FRET-based HIV-1 expression assay. The basic concepts of the intermolecular fluorescence resonance energy transfer (FRET)-based HIV-1-expression assay (FRET-HIV-1 assay) are shown in FIG. 7. Within a plasmid (pHIV-1NL4-3), which encodes a full-length molecular infectious HIV-1 clone, the gene encoding a cyan fluorescent donor protein (CFP) was attached to the downstream end (C-terminus) of the gene encoding an HIV-1 protease subunit through the flexible linker added (five alanines), generating pHIV-1NL4-3/CFP (FIG. 7A). Within the other plasmid (pHIV-1NL4-3), the gene encoding a yellow fluorescent acceptor protein (YFP) was attached to the downstream end of protease-encoding gene in the same manner, generating pHIV-1NL4-3/YFP. Both CFP and YFP were designed to have phenylalanine and proline in the connection with reverse transcriptase so that the protease is cleaved from reverse transcriptase when two subunits dimerize and the dimerized protease acquires enzymatic activity. […] A focused laser beam excitation of CFP (triggered by Helium-Cadmium laser) results in rapid energy transfer to YFP, and most of the fluorescence photons are emitted by YFP (Miyawaki et al. Nature 388(6645):882-887 (1997)). If the dimerization is blocked, the average distance between CFP and YFP becomes larger and the energy transfer rate is decreased and the fraction of photons emitted by YFP is lowered.
In order to interpret the energy transfer efficiency quantitatively, an acceptor photobleaching technique was used, in which the change in CFP emission quenching is measured by comparing the value before and after selectively photobleaching YFP, which prevents problems associated with variable expression levels.

[2] = molecular target: dimerized mature HIV-1 protease (Human immunodeficiency virus type 1 group M subtype B, UniProt P12497); experiment: Assay for effects on dimerized mature protease (cycloheximide, FRET); type: cell-based; details: 1 μM added on day 5 after cycloheximide 50 μg/ml
Experimental: […] Cellular protein synthesis was monitored every 24 hours by determining levels of p24 Gag protein produced into culture medium using the fully automated chemiluminescent enzyme immunoassay system (Lumipulse F; Fujirebio Inc., Tokyo, Japan). The cells were exposed to TMC114 (1 μM) on day 5 and beyond of culture and analyzed under Fluoview FV500 confocal laser scanning microscope (OLYMPUS Optical Corp) at room temperature.
When the CFP^A/B ratios determined were greater than 1.0, it was determined that HIV-1 protease had been generated and dimerization had occurred. The production of HIV-1 was monitored every 24 hours following transfection by determining levels of p24 Gag protein produced into culture medium as described by Koh et al. Antimicrob Agents Chemother 47:3123-9 (2003).
Dissociation of already formed dimer. TMC114 was examined for its ability to dissociate the protease once dimerized within cells producing infectious HIV-1 virions. Cos-7 cells were co-transfected with wild-type pNLPR-CFP and -YFP plasmids, exposed to cycloheximide (50 μg/mL) in 24, 48, 72, and 96 hrs of culture and beyond, the cells exposed to 1 μM TMC114 on day 5 of culture and beyond, cellular protein synthesis was monitored every 24 hours by determining levels of p24 Gag protein produced into culture medium, and the values of the ratio were determined at various time points. […]

SMILES	melting point	IC50 (HIV-1LAI; read-out: IC50 against HIV-1LAI, MT-2 cells, 100 TCID50 of HIV-1LAI, MTT assay on day 7)	IC50 (HIV-1LAI; read-out: MTT assay (IC50, nM), Human CD4+ MT-2 cells, 100 TCID50 of HIV-1LAI, day 7)	inhibition of protease dimerization [1]	inhibition of protease dimerization ([1]; listed as TMC114)	concentration effectively blocking FRET / disrupting protease dimerization ([1]; in culture)	dissociation of already dimerized protease [2]	dissociation of already dimerized protease ([2]; listed as TMC114)
CC(C)CN(C[C@@H](O)[C@H](Cc1ccccc1)NC(=O)OC1CO[C@H]2OCCC12)S(=O)(=O)c1cccc(O)c1 (some centres unmarked)	90 to 93 °C							
CC(C)CN(C[C@@H](O)[C@H](Cc1ccccc1)NC(=O)O[C@H]1CO[C@H]2OCC[C@H]21)S(=O)(=O)c1ccc(N)cc1 [DRV, darunavir]		3 nM	~3 nM	disrupt protease dimerization	dimerization was effectively blocked; also recorded: blocked the dimerization; also recorded: blocked protease dimerization	0.1 µM	failed to dissociate mature protease dimer	no inhibition of FRET was detected; also recorded: did not appear to reverse the dimerization
